Results reported in PubChem BioAssay (NCI).
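Cultured in 96-well plates, cells were exposed to test compound for 48 hours across five concentrations. The concentration for full growth arrest is given as TGI.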

Columns and labels:
Assay in all cases: NCI-60 cell line screen, 48 h
M14 melanoma = tested on: M14 melanoma
NCI/ADR-RES ovarian = tested on: NCI/ADR-RES ovarian
UO-31 renal = tested on: UO-31 renal
TK-10 renal = tested on: TK-10 renal
RPMI-8226 leukemia = tested on: RPMI-8226 leukemia
UACC-257 melanoma = tested on: UACC-257 melanoma
MCF7 breast = tested on: MCF7 breast
HCT-116 colon = tested on: HCT-116 colon
PC-3 prostate = tested on: PC-3 prostate
DU-145 prostate = tested on: DU-145 prostate
SR leukemia = tested on: SR leukemia
ACHN renal = tested on: ACHN renal
CCRF-CEM leukemia = tested on: CCRF-CEM leukemia
SF-539 CNS = tested on: SF-539 CNS
HCT-15 colon = tested on: HCT-15 colon
LOX IMVI melanoma = tested on: LOX IMVI melanoma
HOP-92 NSCLC = tested on: HOP-92 NSCLC
IGROV1 ovarian = tested on: IGROV1 ovarian
HL-60(TB) leukemia = tested on: HL-60(TB) leukemia
HT29 colon = tested on: HT29 colon
NCI-H23 lung = tested on: NCI-H23 lung
OVCAR-5 ovarian = tested on: OVCAR-5 ovarian
SK-MEL-28 melanoma = tested on: SK-MEL-28 melanoma
A498 renal = tested on: A498 renal
SNB-19 CNS = tested on: SNB-19 CNS
RXF 393 renal = tested on: RXF 393 renal
UACC-62 melanoma = tested on: UACC-62 melanoma
T-47D breast = tested on: T-47D breast
HOP-62 NSCLC = tested on: HOP-62 NSCLC
HS 578T breast = tested on: HS 578T breast
MDA-MB-231 breast = tested on: MDA-MB-231 breast
SK-MEL-5 melanoma = tested on: SK-MEL-5 melanoma
786-0 renal = tested on: 786-0 renal
SK-OV-3 ovarian = tested on: SK-OV-3 ovarian
OVCAR-4 ovarian = tested on: OVCAR-4 ovarian
OVCAR-8 ovarian = tested on: OVCAR-8 ovarian
SF-295 CNS = tested on: SF-295 CNS
MDA-MB-435 = tested on: MDA-MB-435
BT-549 breast = tested on: BT-549 breast
MALME-3M melanoma = tested on: MALME-3M melanoma
EKVX NSCLC = tested on: EKVX NSCLC
CAKI-1 renal = tested on: CAKI-1 renal
SK-MEL-2 melanoma = tested on: SK-MEL-2 melanoma
NCI-H522 lung = tested on: NCI-H522 lung
NCI-H226 lung = tested on: NCI-H226 lung
A549 NSCLC = tested on: A549 NSCLC
U251 CNS = tested on: U251 CNS
SN12C renal = tested on: SN12C renal
COLO 205 colon = tested on: COLO 205 colon
SF-268 CNS = tested on: SF-268 CNS
SW-620 colon = tested on: SW-620 colon
OVCAR-3 ovarian = tested on: OVCAR-3 ovarian
MDA-N = tested on: MDA-N
NCI-H460 lung = tested on: NCI-H460 lung
KM12 colon = tested on: KM12 colon
SNB-75 CNS = tested on: SNB-75 CNS

SMILES: O=C1C(=O)c2ccccc2C(O)=C1C(CCc1ccccc1)C1=C(O)c2ccccc2C(=O)C1=O
- TGI (M14 melanoma): > 100 µM
- TGI (NCI/ADR-RES ovarian): > 100 µM
- TGI (UO-31 renal): > 100 µM
- TGI (TK-10 renal): > 100 µM
- TGI (RPMI-8226 leukemia): > 100 µM
- TGI (UACC-257 melanoma): 66.7 µM
- TGI (MCF7 breast): > 100 µM
- TGI (HCT-116 colon): > 100 µM
- TGI (PC-3 prostate): > 100 µM
- TGI (DU-145 prostate): 29.1 µM
- TGI (SR leukemia): > 100 µM
- TGI (ACHN renal): > 100 µM
- TGI (CCRF-CEM leukemia): > 100 µM
- TGI (SF-539 CNS): > 100 µM
- TGI (HCT-15 colon): > 100 µM
- TGI (LOX IMVI melanoma): > 100 µM
- TGI (HOP-92 NSCLC): > 100 µM
- TGI (IGROV1 ovarian): > 100 µM
- TGI (HL-60(TB) leukemia): 15.4 µM
- TGI (HT29 colon): > 100 µM
- TGI (NCI-H23 lung): > 100 µM
- TGI (OVCAR-5 ovarian): > 100 µM
- TGI (SK-MEL-28 melanoma): > 100 µM
- TGI (A498 renal): > 100 µM
- TGI (SNB-19 CNS): > 100 µM
- TGI (RXF 393 renal): > 100 µM
- TGI (UACC-62 melanoma): 34.5 µM
- TGI (T-47D breast): > 100 µM
- TGI (HOP-62 NSCLC): > 100 µM
- TGI (HS 578T breast): > 100 µM
- TGI (MDA-MB-231 breast): > 100 µM
- TGI (SK-MEL-5 melanoma): 30.9 µM
- TGI (786-0 renal): > 100 µM
- TGI (SK-OV-3 ovarian): > 100 µM
- TGI (OVCAR-4 ovarian): > 100 µM
- TGI (OVCAR-8 ovarian): > 100 µM
- TGI (SF-295 CNS): > 100 µM
- TGI (MDA-MB-435): 28.4 µM
- TGI (BT-549 breast): > 100 µM
- TGI (MALME-3M melanoma): 29.7 µM
- TGI (EKVX NSCLC): > 100 µM
- TGI (CAKI-1 renal): > 100 µM
- TGI (SK-MEL-2 melanoma): > 100 µM
- TGI (NCI-H522 lung): > 100 µM
- TGI (NCI-H226 lung): > 100 µM
- TGI (A549 NSCLC): > 100 µM
- TGI (U251 CNS): > 100 µM
- TGI (SN12C renal): > 100 µM
- TGI (COLO 205 colon): > 100 µM
- TGI (SF-268 CNS): > 100 µM
- TGI (SW-620 colon): > 100 µM
- TGI (OVCAR-3 ovarian): > 100 µM
- TGI (MDA-N): 34.3 µM
- TGI (NCI-H460 lung): > 100 µM
- TGI (KM12 colon): > 100 µM
- TGI (SNB-75 CNS): > 100 µM
